According to patent US10519177B2, “Heterocyclic compounds and uses thereof” (Plexxikon Inc., priority 2013, dated 2019):

How the values were obtained:
BRD4-BD12 (1-477) = BRD4-BD12 (1-477) (Homo sapiens (Human), UniProt O60885); test: Alphascreen binding assay BRD4-BD12; conditions: BRD4(1 2) H4; read-out: Biochemical activity (IC50 μM) BRD4(1 2) H4
How it was run: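 First, compound was preincubated 1 h at room temperature with the His-tagged BRD4 protein (BD1 44-164 or tandem BD12 1-477) and acetylated H4 peptide. Next, donor and acceptor beads were added at 7.5 μg/ml final. After 30 min, AlphaScreen emission was recorded.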

MV-4-11 cells = test: Oncology cell growth assay MV-4-11 (CellTiter Glo); format: cell-based; conditions: Homo sapiens, MV4-11, 72 h; read-out: Cell activity (IC50 μM) MV-4-11 3d-Growth
How it was run: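 MV-4-11 AML cells (MLL-AF4), 3000 per well, exposed to 8-point 1:3 compound titration from 10 μM top concentration (0.2% DMSO) for 72 h. Viability by CellTiter Glo luminescence, normalized to DMSO controls; pIC50 from four-parameter curve fit.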

bromodomain = test: at least one of the bromodomain cell assays of Example 57; format: cell-based; conditions: at least one of the bromodomain cell assays described in Example 57; read-out: IC50 in at least one of the bromodomain cell assays

Structure (SMILES)	IC50 (BRD4-BD12 (1-477)) [µM]	IC50 (MV-4-11 cells) [µM]	IC50 (bromodomain) [nM]
[2H]C([2H])(C1CCC(F)(F)CC1)n1cc(-c2cnn(CC)c2)c2ncc(-c3c(C)noc3C)cc21 [P-0336, 4-[1-[dideuterio-(4,4-difluorocyclohexyl)methyl]-3-(1-ethylpyrazol-4-yl)pyrrolo[3,2-b]pyridin-6-yl]-3,5-dimethyl-isoxazole]	< 1	< 1	< 10000
[2H]C([2H])(C1CCC(F)(F)CC1)n1cc(-c2cn(C)nc2C(F)(F)F)c2ncc(-c3c(C)noc3C)cc21 [P-0337, 4-[1-[dideuterio-(4,4-difluorocyclohexyl)methyl]-3-[1-methyl-3-(trifluoromethyl)pyrazol-4-yl]pyrrolo[3,2-b]pyridin-6-yl]-3,5-dimethyl-isoxazole]	< 1	< 1	< 10000
[2H]C([2H])(C1CCC(F)(F)CC1)n1cc(-c2cnn(C)c2C)c2ncc(-c3c(C)noc3C)cc21 [P-0338, 4-[1-[dideuterio-(4,4-difluorocyclohexyl)methyl]-3-(1,5-dimethylpyrazol-4-yl)pyrrolo[3,2-b]pyridin-6-yl]-3,5-dimethyl-isoxazole]	< 1	< 1	< 10000
[2H]C([2H])(C1CCC(F)(F)CC1)n1cc(-c2cnn(CCC#N)c2)c2ncc(-c3c(C)noc3C)cc21 [P-0339, 3-[4-[1-[dideuterio-(4,4-difluorocyclohexyl)methyl]-6-(3,5-dimethylisoxazol-4-yl)pyrrolo[3,2-b]pyridin-3-yl)pyrazol-1-yl]propanenitrile]	< 1	< 1	< 10000
[2H]C([2H])(C1CCC(F)(F)CC1)n1cc(-c2cccnc2)c2ncc(-c3c(C)noc3C)cc21 [P-0340, 4-[1-[dideuterio-(4,4-difluorocyclohexyl)methyl]-3-(3-pyridyl)pyrrolo[3,2-b]pyridin-6-yl]-3,5-dimethyl-isoxazole]	< 1	< 1	< 10000
[2H]C([2H])(C1CCC(F)(F)CC1)n1cc(-c2ccnc(C3CC3)c2)c2ncc(-c3c(C)noc3C)cc21 [P-0341, 4-[3-(2-cyclopropyl-4-pyridyl)-1-[dideuterio-(4,4-difluorocyclohexyl)methyl]pyrrolo[3,2-b]pyridin-6-yl]-3,5-dimethyl-isoxazole]	< 1	< 1	< 10000
[2H]C([2H])(C1CCC(F)(F)CC1)n1cc(-c2ccc(O)nc2)c2ncc(-c3c(C)noc3C)cc21 [P-0342, 5-[1-[dideuterio-(4,4-difluorocyclohexyl)methyl]-6-(3,5-dimethylisoxazol-4-yl)pyrrolo[3,2-b]pyridin-3-yl]pyridin-2-ol]	< 1	< 1	< 10000
[2H]C([2H])(C1CCC(F)(F)CC1)n1cc(-c2ccc(OC)nc2)c2ncc(-c3c(C)noc3C)cc21 [P-0343, 4-[1-[dideuterio-(4,4-difluorocyclohexyl)methyl]-3-(6-methoxy-3-pyridyl)pyrrolo[3,2-b]pyridin-6-yl]-3,5-dimethyl-isoxazole]	< 1	< 1	< 10000
[2H]C([2H])(C1CCC(F)(F)CC1)n1cc(-c2ccc(C)nc2)c2ncc(-c3c(C)noc3C)cc21 [P-0344, 4-[1-[dideuterio-(4,4-difluorocyclohexyl)methyl]-3-(6-methyl-3-pyridyl)pyrrolo[3,2-b]pyridin-6-yl]-3,5-dimethyl-isoxazole]	< 1	< 1	< 10000
[2H]C([2H])(C1CCC(F)(F)CC1)n1cc(-c2ccc(=O)n(C)c2)c2ncc(-c3c(C)noc3C)cc21 [P-0345, 5-[1-[dideuterio-(4,4-difluorocyclohexyl)methyl]-6-(3,5-dimethylisoxazol-4-yl)pyrrolo[3,2-b]pyridin-3-yl]-1-methyl-pyridin-2-one]	< 1	< 1	< 10000
[2H]C([2H])(C1CCC(F)(F)CC1)n1cc(-c2cnc(OC)nc2)c2ncc(-c3c(C)noc3C)cc21 [P-0346, 4-[1-[dideuterio-(4,4-difluorocyclohexyl)methyl]-3-(2-methoxypyrimidin-5-yl)pyrrolo[3,2-b]pyridin-6-yl]-3,5-dimethyl-isoxazole]	< 1	< 1	< 10000
[2H]C([2H])(C1CCC(F)(F)CC1)n1cc(-c2ccc(N)nc2)c2ncc(-c3c(C)noc3C)cc21 [P-0347, 5-[1-[dideuterio-(4,4-difluorocyclohexyl)methyl]-6-(3,5-dimethylisoxazol-4-yl)pyrrolo[3,2-b]pyridin-3-yl]pyridin-2-amine]	< 1	< 1	< 10000
[2H]C([2H])(C1CCC(F)(F)CC1)n1cc(-c2cnc(N)nc2)c2ncc(-c3c(C)noc3C)cc21 [P-0348, 5-[1-[dideuterio-(4,4-difluorocyclohexyl)methyl]-6-(3,5-dimethylisoxazol-4-yl)pyrrolo[3,2-b]pyridin-3-yl]pyrimidin-2-amine]	< 1	< 1	< 10000
[2H]C([2H])(C1CCC(F)(F)CC1)n1cc(-c2cnc(C3CC3)nc2)c2ncc(-c3c(C)noc3C)cc21 [P-0349, 4-[3-(2-cyclopropylpyrimidin-5-yl)-1-[dideuterio-(4,4-difluorocyclohexyl)methyl)pyrrolo[3,2-b]pyridin-6-yl]-3,5-dimethyl-isoxazole]	< 1	< 1	< 10000
Cc1noc(C)c1-c1cnc2c(-c3cnn(C(F)F)c3)cn(Cc3ncccn3)c2c1 [P-0350, 4-[3-[1-(difluoromethyl)pyrazol-4-yl]-1-(pyrimidin-2-ylmethyl)pyrrolo[3,2-b]pyridin-6-yl]-3,5-dimethyl-isoxazole]	< 1	< 1	< 10000
Cc1noc(C)c1-c1cnc2c(-c3cnn(CC(F)(F)F)c3)cn([C@H](C)c3ccc(F)cc3)c2c1 [P-0351, 4-[1-[(1R)-1-(4-fluorophenyl)ethyl]-3-[1-(2,2,2-trifluoroethyl)pyrazol-4-yl]pyrrolo[3,2-b]pyridin-6-yl]-3,5-dimethyl-isoxazole]	< 1	< 1	< 10000
Cc1noc(C)c1-c1cnc2c(-c3cnn(C(F)F)c3)cn([C@H](C)c3ccc(F)cc3)c2c1 [P-0352, 4-[3-[1-(difluoromethyl)pyrazol-4-yl]-1-[(1R)-1-(4-fluorophenyl)ethyl]pyrrolo[3,2-b]pyridin-6-yl]-3,5-dimethyl-isoxazole]	< 1	< 1	< 10000
Cc1noc(C)c1-c1cnc2c(-c3cnn(CC(F)(F)F)c3)cn(Cc3ncccn3)c2c1 [P-0353, 3,5-dimethyl-4-[1-(pyrimidin-2-ylmethyl)-3-[1-(2,2,2-trifluoroethyl)pyrazol-4-yl]pyrrolo(3,2-b]pyridin-6-yl]isoxazole]	< 1	< 1	< 10000
Cc1noc(C)c1-c1cnc2c(-c3cnn(CC(F)(F)F)c3)cn([C@@H](C)c3ccc(F)cc3)c2c1 [P-0354, 4-[1-[(1S)-1-(4-fluorophenyl)ethyl]-3-(1-(2,2,2-trifluoroethyl)pyrazol-4-yl]pyrrolo(3,2-b)pyridin-6-yl]-3,5-dimethyl-isoxazole]	< 1	< 1	< 10000
Cc1noc(C)c1-c1cnc2c(-c3cnn(C(F)F)c3)cn([C@@H](C)c3ccc(F)cc3)c2c1 [P-0355, 4-[3-[1-(difluoromethyl)pyrazol-4-yl]-1-[(1S)-1-(4-fluorophenyl)ethyl]pyrrolo[3,2-b]pyridin-6-yl]-3,5-dimethyl-isoxazole]	< 1	< 1	< 10000
Cc1noc(C)c1-c1cnc2c(-c3cnn(CC(F)(F)F)c3)cn(CC3(F)CC=C(F)CC3)c2c1 (stereo not drawn) [P-0356, 4-[1-[(1,4-difluorocyclohex-3-en-1-yl)methyl]-3-[1-(2,2,2-trifluoroethyl)pyrazol-4-yl]pyrrolo[3,2-b]pyridin-6-yl]-3,5-dimethyl-isoxazole]	< 1	< 1	< 10000
Cc1nnn(C)c1-c1cnc2c(-c3cnn(C(F)F)c3)cn(CC3CCC(F)(F)CC3)c2c1 [P-0357, 1-[(4,4-difluorocyclohexyl)methyl]-3-[1-(difluoromethyl)pyrazol-4-yl]-6-(3,5-dimethyltriazol-4-yl)pyrrolo[3,2-b]pyridine]	< 1	< 1	< 10000
[2H]C([2H])(C1CCC(F)(F)CC1)n1ccc2ncc(-c3c(C)nnn3CC)cc21 [P-0360, 1-[dideuterio-(4,4-difluorocyclohexyl)methyl]-6-(3-ethyl-5-methyl-triazol-4-yl)pyrrolo[3,2-b]pyridine]	1 to 10	10 to 200	< 10000
Cc1noc(C)c1-c1cnc2c(-c3cnn(C(F)F)c3)cn(C(C)c3ccccn3)c2c1 (stereo not drawn) [P-0361, 4-[3-[1-(difluoromethyl)pyrazol-4-yl]-1-[1-(2-pyridyl)ethyl]pyrrolo[3,2-b]pyridin-6-yl]-3,5-dimethyl-isoxazole]	< 1	< 1	< 10000
[2H]C([2H])(C1CCC(F)(F)CC1)n1cc(-c2cnn(C(=O)OC(C)(C)C)c2)c2ncc(-c3c(C)noc3C)cc21 [P-0362, tert-butyl 4-[1-[dideuterio-(4,4-difluorocyclohexyl)methyl]-6-(3,5-dimethylisoxazol-4-yl)pyrrolo[3,2-b]pyridin-3-yl]pyrazole-1-carboxylate]	< 1	< 1	< 10000
